{"source": "patent US8546343B2", "about": "“Aminoglycoside antibiotics targeting bacterial 16S ribosomal RNA” (Eidgenoessische Technische Hochschule Zurich, priority 2007, dated 2013)", "key": {"[1]": {"tested_on": "AG008 E. coli BM13 (ANT2″)", "test": "Standard MIC assay, AG008", "assay_type": "cell-based, Escherichia coli", "method": "(§1) Selected compounds of the present invention were tested for antibiotic susceptibility using clinical isolates of Staphylococci, Enterococci and Escherichia coli as well as strains carrying defined resistance determinants and compared to well known antibiotics of the state of the art. Drug susceptibility was determined in standard MIC assays, i.e. by determination of the minimal drug concentration required to inhibit bacterial growth in vitro."}, "[2]": {"tested_on": "M. smegmatis ΔrrnB 1408G (16S rRNA position 1408 G, eukaryotic cytosolic ribosomes)", "test": "MIC, recombinant M. smegmatis with mutant ribosomes 1408G", "assay_type": "cell-based, Mycobacterium smegmatis", "settings": "M. smegmatis ΔrrnB 1408G mutant ribosomes; 72 h at 37° C.", "in_short": "(§2)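 M. smegmatis single-rRNA-operon strain carrying the indicated 16S rRNA decoding-site alleles, introduced into the chromosomal operon and confirmed by sequencing. Colony-purified cultures were grown in LB with 0.05% Tween 80 and started at OD600 0.025. MIC was read in microtiter format against twofold drug dilutions.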"}, "[3]": {"tested_on": "M. smegmatis ΔrrnB 1491C (16S rRNA position 1491 C, eukaryotic mitochondrial ribosome)", "test": "MIC, recombinant M. smegmatis with mutant ribosomes 1491C", "assay_type": "cell-based, Mycobacterium smegmatis", "settings": "M. smegmatis ΔrrnB 1491C mutant ribosomes; 72 h at 37° C.", "in_short": "as §2"}, "[4]": {"tested_on": "AG004 E. coli clinical isolate", "test": "Standard MIC assay, AG004", "assay_type": "cell-based, Escherichia coli", "method": "as §1"}, "[5]": {"tested_on": "AG014 Staph. epi. clinical isolate", "test": "Standard MIC assay, AG014", "assay_type": "cell-based, Staphylococcus epidermidis", "method": "as §1"}, "[6]": {"tested_on": "AG003 E. coli clinical isolate", "test": "Standard MIC assay, AG003", "assay_type": "cell-based, Escherichia coli", "method": "as §1"}, "AG017 E. faecalis JH2-2": {"tested_on": "AG017 E. faecalis JH2-2", "test": "Standard MIC assay, AG017", "assay_type": "cell-based, Enterococcus faecalis", "method": "as §1"}, "[7]": {"tested_on": "AG015 S. aureus BM3002 (ANT4′)", "test": "Standard MIC assay, AG015", "assay_type": "cell-based, Staphylococcus aureus", "method": "as §1"}, "[8]": {"tested_on": "AG011 Staph. aureus clinical isolate", "test": "Standard MIC assay, AG011", "assay_type": "cell-based, Staphylococcus aureus", "method": "as §1"}, "[9]": {"tested_on": "M. smegmatis ΔrrnB 1491A (16S rRNA position 1491 A, eukaryotic cytosolic ribosomes)", "test": "MIC, recombinant M. smegmatis with mutant ribosomes 1491A", "assay_type": "cell-based, Mycobacterium smegmatis", "settings": "M. smegmatis ΔrrnB 1491A mutant ribosomes; 72 h at 37° C.", "in_short": "as §2"}, "AG016 S. aureus BM3002": {"tested_on": "AG016 S. aureus BM3002", "test": "Standard MIC assay, AG016", "assay_type": "cell-based, Staphylococcus aureus", "method": "as §1"}, "[10]": {"tested_on": "AG009 E. coli BM13 AAC(6′)-1B", "test": "Standard MIC assay, AG009", "assay_type": "cell-based, Escherichia coli", "method": "as §1"}, "[11]": {"tested_on": "AG007 E. coli BM13 (AAC3)", "test": "Standard MIC assay, AG007", "assay_type": "cell-based, Escherichia coli", "method": "as §1"}, "[12]": {"tested_on": "AG019 E. faecalis JH2-2 (APH2″ AAC6′)", "test": "Standard MIC assay, AG019", "assay_type": "cell-based, Enterococcus faecalis", "method": "as §1"}, "AG006 E. coli BM13": {"tested_on": "AG006 E. coli BM13", "test": "Standard MIC assay, AG006", "assay_type": "cell-based, Escherichia coli", "method": "as §1"}, "[13]": {"tested_on": "M. smegmatis ΔrrnB (bacterial ribosomes)", "test": "MIC, recombinant M. smegmatis with bacterial (wild-type) ribosomes", "assay_type": "cell-based, Mycobacterium smegmatis", "settings": "72 h at 37° C.", "in_short": "as §2"}, "[14]": {"tested_on": "AG001 E. coli clinical isolate", "test": "Standard MIC assay, AG001", "assay_type": "cell-based, Escherichia coli", "method": "as §1"}, "[15]": {"tested_on": "AG013 Staph. epi. clinical isolate", "test": "Standard MIC assay, AG013", "assay_type": "cell-based, Staphylococcus epidermidis", "method": "as §1"}, "[16]": {"tested_on": "AG002 E. coli clinical isolate", "test": "Standard MIC assay, AG002", "assay_type": "cell-based, Escherichia coli", "method": "as §1"}}, "data": [{"smiles": "NCC1OC(OC2C(CO)OC(OC3C(O)C(N)CC(N)C3OC3OC(CO)C(OCc4ccccc4)C(O)C3N)C2O)C(N)C(O)C1O", "note": "(centres unmarked) [Compound 11, 4′-O-Benzylparomomycin]", "values": [{"measurement": "MIC", "setting": "[1]; Escherichia coli, read-out: Minimal inhibitory concentrations AG008", "value": "64 to 128", "unit": "µg/mL"}, {"measurement": "minimal inhibitory concentrations ΔrrnB 1408G", "setting": "[2]", "value": ">512", "unit": "µg/mL"}, {"measurement": "minimal inhibitory concentrations ΔrrnB 1491C", "setting": "[3]", "value": ">512", "unit": "µg/mL"}, {"measurement": "MIC", "setting": "[4]; Escherichia coli, read-out: Minimal inhibitory concentrations AG004", "value": 64, "unit": "µg/mL"}, {"measurement": "MIC", "setting": "[5]; Staphylococcus epidermidis, read-out: Minimal inhibitory concentrations AG014", "value": 8, "unit": "µg/mL"}, {"measurement": "MIC", "setting": "[6]; Escherichia coli, read-out: Minimal inhibitory concentrations AG003", "value": "32 to 64", "unit": "µg/mL"}, {"measurement": "MIC", "setting": "AG017 E. faecalis JH2-2; Enterococcus faecalis, read-out: Minimal inhibitory concentrations AG017", "value": "32 to 64", "unit": "µg/mL"}, {"measurement": "MIC", "setting": "[7]; Staphylococcus aureus, read-out: Minimal inhibitory concentrations AG015", "value": 32, "unit": "µg/mL"}, {"measurement": "MIC", "setting": "[8]; Staphylococcus aureus, read-out: Minimal inhibitory concentrations AG011", "value": 8, "unit": "µg/mL"}, {"measurement": "minimal inhibitory concentrations ΔrrnB 1491A", "setting": "[9]", "value": "≧512 μg/ml"}, {"measurement": "MIC", "setting": "AG016 S. aureus BM3002; Staphylococcus aureus, read-out: Minimal inhibitory concentrations AG016", "value": "16 to 32", "unit": "µg/mL"}, {"measurement": "MIC", "setting": "[10]; Escherichia coli, read-out: Minimal inhibitory concentrations AG009", "value": "64 to 128", "unit": "µg/mL"}, {"measurement": "MIC", "setting": "[11]; Escherichia coli, read-out: Minimal inhibitory concentrations AG007", "value": 32, "unit": "µg/mL"}, {"measurement": "MIC", "setting": "[12]; Enterococcus faecalis, read-out: Minimal inhibitory concentrations AG019", "value": "> 256", "unit": "µg/mL"}, {"measurement": "MIC", "setting": "AG006 E. coli BM13; Escherichia coli, read-out: Minimal inhibitory concentrations AG006", "value": 32, "unit": "µg/mL"}, {"measurement": "minimal inhibitory concentrations ΔrrnB", "setting": "[13]", "value": 4, "unit": "µg/mL"}, {"measurement": "MIC", "setting": "[14]; Escherichia coli, read-out: Minimal inhibitory concentrations AG001", "value": 64, "unit": "µg/mL"}, {"measurement": "MIC", "setting": "[15]; Staphylococcus epidermidis, read-out: Minimal inhibitory concentrations AG013", "value": 16, "unit": "µg/mL"}, {"measurement": "MIC", "setting": "[16]; Escherichia coli, read-out: Minimal inhibitory concentrations AG002", "value": "32 to 64", "unit": "µg/mL"}]}, {"smiles": "NC[C@@H]1O[C@H](O[C@H]2[C@@H](O)[C@H](O[C@@H]3[C@@H](O)[C@H](N)C[C@H](N)[C@H]3O[C@H]3O[C@H](CO)[C@@H](OCc4ccc(Cl)cc4)[C@H](O)[C@H]3N)O[C@@H]2CO)[C@H](N)[C@@H](O)[C@@H]1O", "note": "[Compound 19a, 4′-p-chlorobenzylparomomycin]", "values": [{"measurement": "Minimal inhibitory concentrations AG008", "setting": "[1]; E. coli BM13 (ANT2″)", "value": "8 to 16", "unit": "µg/mL"}, {"measurement": "minimal inhibitory concentrations ΔrrnB 1408G", "setting": "[2]", "value": "≧512 μg/ml"}, {"measurement": "minimal inhibitory concentrations ΔrrnB 1491C", "setting": "[3]", "value": ">512", "unit": "µg/mL"}, {"measurement": "Minimal inhibitory concentrations AG004", "setting": "[4]", "value": "8 to 16", "unit": "µg/mL"}, {"measurement": "Minimal inhibitory concentrations AG014", "setting": "[5]", "value": 2, "unit": "µg/mL"}, {"measurement": "Minimal inhibitory concentrations AG003", "setting": "[6]", "value": "8 to 16", "unit": "µg/mL"}, {"measurement": "Minimal inhibitory concentrations AG017", "setting": "AG017 E. faecalis JH2-2", "value": "8 to 16", "unit": "µg/mL"}, {"measurement": "Minimal inhibitory concentrations AG015", "setting": "[7]; S. aureus BM3002 (ANT4′)", "value": "8 to 16", "unit": "µg/mL"}, {"measurement": "Minimal inhibitory concentrations AG011", "setting": "[8]", "value": 2, "unit": "µg/mL"}, {"measurement": "minimal inhibitory concentrations ΔrrnB 1491A", "setting": "[9]", "value": "≧512 μg/ml"}, {"measurement": "Minimal inhibitory concentrations AG016", "setting": "AG016 S. aureus BM3002", "value": 4, "unit": "µg/mL"}, {"measurement": "Minimal inhibitory concentrations AG009", "setting": "[10]; E. coli BM13 AAC(6′)-1B", "value": 32, "unit": "µg/mL"}, {"measurement": "Minimal inhibitory concentrations AG007", "setting": "[11]; E. coli BM13 (AAC3)", "value": "8 to 16", "unit": "µg/mL"}, {"measurement": "Minimal inhibitory concentrations AG019", "setting": "[12]; E. faecalis JH2-2 (APH2″ AAC6′)", "value": "32 to 64", "unit": "µg/mL"}, {"measurement": "Minimal inhibitory concentrations AG006", "setting": "AG006 E. coli BM13", "value": "8 to 16", "unit": "µg/mL"}, {"measurement": "minimal inhibitory concentrations ΔrrnB", "setting": "[13]", "value": 2, "unit": "µg/mL"}, {"measurement": "Minimal inhibitory concentrations AG001", "setting": "[14]", "value": "8 to 16", "unit": "µg/mL"}, {"measurement": "Minimal inhibitory concentrations AG013", "setting": "[15]", "value": 4, "unit": "µg/mL"}, {"measurement": "Minimal inhibitory concentrations AG002", "setting": "[16]", "value": 16, "unit": "µg/mL"}]}]}
